Structures are written as SMILES. Where “and” joins values, the source holds several entries; their conditions need not be identical. Equal entries are not always repeated.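 How tested: cells in 96-well plates exposed to compound for 48 hours at five concentrations. GI50 marks 50% less growth. The concentration for full growth arrest is given as TGI.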

The source of these data is PubChem BioAssay (NCI).

Test systems include M14 melanoma; SN12C renal; RXF 393 renal; OVCAR-3 ovarian; UACC-62 melanoma; SK-MEL-5 melanoma; HT29 colon; PC-3 prostate; NCI/ADR-RES ovarian; MDA-MB-231 breast.
What all share (assay): DTP human tumour cell line panel, 48 h

As to `c1ccc(SC(Sc2ccccc2)=C2CCC2)cc1`, the TGI in the assay with M14 melanoma, in the assay on SN12C renal, with RXF 393 renal, in the assay on OVCAR-3 ovarian, with UACC-62 melanoma and in the assay with SK-MEL-5 melanoma was > 100 µM throughout.
Turning to `CCC[CH2][Sn](=[O])[CH2]CCC`, the GI50 is > 50 µM in the assay with M14 melanoma; > 50 µM with HT29 colon; > 50 µM in the assay on SN12C renal; 47.7 µM in the assay on RXF 393 renal; > 50 µM in the assay with OVCAR-3 ovarian; > 50 µM with UACC-62 melanoma. Besides, the GI50 with SK-MEL-5 melanoma is > 50 µM. The TGI in the assay with M14 melanoma, in the assay with HT29 colon, with SN12C renal, with RXF 393 renal, in the assay on OVCAR-3 ovarian and in the assay with UACC-62 melanoma was > 50 µM in each case. Further, the concentration for total growth inhibition (TGI) in the assay on SK-MEL-5 melanoma is > 50 µM.
For the molecule `O=C1c2ccccc2C(=O)N1CCc1ncc(-c2ccccc2)[nH]1`, the TGI in the assay with PC-3 prostate, in the assay with NCI/ADR-RES ovarian, in the assay with M14 melanoma, in the assay with MDA-MB-231 breast, with HT29 colon and with SN12C renal was > 100 µM each time. Further, the TGI in the assay on OVCAR-3 ovarian, in the assay with UACC-62 melanoma and in the assay with SK-MEL-5 melanoma was > 100 µM in each case.
`CN(C)c1ccc(/C=c2\sc3nnc(-c4ccco4)n3c2=O)cc1`: the concentration for total growth inhibition (TGI) with M14 melanoma, with SN12C renal, in the assay with RXF 393 renal, in the assay on OVCAR-3 ovarian, in the assay with UACC-62 melanoma and in the assay with SK-MEL-5 melanoma was > 100 µM each time.
In the case of `CCCCCCCCCCCCSC(=S)c1c(C)[nH]n(-c2ccccc2)c1=O`, the total growth inhibition concentration (TGI) is > 50 µM in the assay on M14 melanoma; 36.6 µM in the assay on HT29 colon; > 50 µM in the assay with SN12C renal; 24.5 µM with RXF 393 renal; 46.1 µM with OVCAR-3 ovarian; 25.9 µM with UACC-62 melanoma. For the same molecule, in the assay on SK-MEL-5 melanoma, the concentration for total growth inhibition (TGI) came out at 15.9 µM.
Regarding `CCOC(=O)c1ccc(-n2cnc(-c3ccc([N+](=O)[O-])cc3)c2)cc1`, the TGI in the assay with PC-3 prostate, with NCI/ADR-RES ovarian, in the assay with M14 melanoma, in the assay on MDA-MB-231 breast, in the assay on HT29 colon and in the assay on SN12C renal was > 100 µM throughout. In addition, the results for the TGI in the assay with OVCAR-3 ovarian, in the assay with UACC-62 melanoma and with SK-MEL-5 melanoma were > 100 µM, > 100 µM and 74.5 µM, respectively.
Consider `CC(C)(C)C(=O)N1C(C(=O)O)Cc2ccccc2[C@@H]1Cc1ccccc1` (some centres not stated), for which the concentration for total growth inhibition (TGI) with M14 melanoma, with HT29 colon, with SN12C renal, in the assay on RXF 393 renal, in the assay with OVCAR-3 ovarian and with UACC-62 melanoma was > 100 µM throughout. The TGI in the assay with SK-MEL-5 melanoma was > 100 µM.
Consider `Cc1ccc(NCC2(/N=C/c3ccccc3)OC(CO)C(O)C2O)cc1` (configuration not stated), for which the concentration for total growth inhibition (TGI) with M14 melanoma, with HT29 colon, in the assay with OVCAR-3 ovarian, in the assay on UACC-62 melanoma and with SK-MEL-5 melanoma was > 100 µM throughout.
As to `CC(Oc1ccc2c(-c3ccc(Cl)cc3)cc(=O)oc2c1)C(=O)O` (configuration not stated), the TGI in the assay on M14 melanoma, in the assay with HT29 colon, in the assay on SN12C renal, with RXF 393 renal, in the assay on OVCAR-3 ovarian and with UACC-62 melanoma was > 100 µM throughout. For the same molecule, the TGI in the assay with SK-MEL-5 melanoma was > 100 µM.
Take `COc1ccc2c(c1)c(-c1nc(-c3cn(C)c4ccncc34)cs1)cn2C`: the GI50 is 1.89 µM in the assay with PC-3 prostate; 1.7 µM in the assay with M14 melanoma; 1.83 µM in the assay with MDA-MB-231 breast; 1.43 µM in the assay with HT29 colon; 1.85 µM with SN12C renal; 1.71 µM in the assay on RXF 393 renal. Also, the GI50 in the assay on OVCAR-3 ovarian is 1.99 µM; with UACC-62 melanoma it was 2.09 µM; with SK-MEL-5 melanoma, 1.52 µM. In addition, the total growth inhibition concentration (TGI) in the assay with PC-3 prostate came out at 4.79 µM; with M14 melanoma, 3.29 µM; in the assay with MDA-MB-231 breast it was 3.53 µM; in the assay on HT29 colon, 3.1 µM; with SN12C renal it was 3.49 µM; in the assay on RXF 393 renal, 3.21 µM. In addition, the results for the total growth inhibition concentration (TGI) in the assay with OVCAR-3 ovarian, in the assay with UACC-62 melanoma and in the assay with SK-MEL-5 melanoma were 3.77 µM, 4.78 µM and 2.85 µM, respectively.
On to `Nc1nc(=O)n(C2CCC(CO)O2)cc1F` (configuration not stated), for which the TGI in the assay with M14 melanoma, with HT29 colon, in the assay with SN12C renal, in the assay on RXF 393 renal, in the assay with OVCAR-3 ovarian and with SK-MEL-5 melanoma was > 100 µM in each case.
For `COc1ccc(/C=C/c2cc(OC)c(OC(C)=O)c(OC)c2)cc1`, the total growth inhibition concentration (TGI) with M14 melanoma was > 100 µM; with HT29 colon it was > 100 µM; with SN12C renal, 75.2 µM; in the assay with OVCAR-3 ovarian, > 100 µM; with UACC-62 melanoma it was 42.8 µM.
As to `NC(=S)N1N=C2CCCCCC[C@@H]2[C@H]1c1ccccc1`, the TGI in the assay on M14 melanoma, with HT29 colon, in the assay on SN12C renal, with RXF 393 renal, in the assay with OVCAR-3 ovarian and in the assay on UACC-62 melanoma was > 100 µM each time. The TGI in the assay with SK-MEL-5 melanoma was > 100 µM.
Take `O=[N+]([O-])c1nccn1CC(O)c1ccccc1` (configuration not stated): the total growth inhibition concentration (TGI) in the assay on M14 melanoma, in the assay on HT29 colon, in the assay with SN12C renal, in the assay on RXF 393 renal, in the assay on OVCAR-3 ovarian and in the assay on UACC-62 melanoma was > 100 µM in each case. Also, the TGI with SK-MEL-5 melanoma was > 100 µM.
For `O=C(CC1(O)C(=O)Nc2c(Cl)cc(Cl)cc21)c1ccccc1` (configuration not stated), the TGI in the assay with M14 melanoma, in the assay on HT29 colon, with SN12C renal, in the assay on RXF 393 renal, in the assay with OVCAR-3 ovarian and in the assay with UACC-62 melanoma was > 100 µM each time. The TGI with SK-MEL-5 melanoma was > 100 µM.
As for `COC(=O)CCC(=O)Nc1ccc(Cl)cc1C`, the TGI in the assay with M14 melanoma, in the assay with HT29 colon, in the assay on SN12C renal, in the assay on RXF 393 renal, in the assay on OVCAR-3 ovarian and with UACC-62 melanoma was > 100 µM in each case. Besides, the concentration for total growth inhibition (TGI) in the assay on SK-MEL-5 melanoma was > 100 µM.
For `Nc1ncc(-c2ccc3ncnc(Nc4cccc(Cl)c4)c3c2)cn1`, the GI50 in the assay with PC-3 prostate was 1.48 µM; with MDA-MB-231 breast, 2.22 µM; with HT29 colon, 1.75 µM; in the assay on SN12C renal, 1.82 µM; in the assay with UACC-62 melanoma it was 2.69 µM; in the assay with SK-MEL-5 melanoma it was 2.31 µM. The TGI in the assay on PC-3 prostate, in the assay on MDA-MB-231 breast, with HT29 colon, in the assay with SN12C renal, in the assay with UACC-62 melanoma and in the assay on SK-MEL-5 melanoma was > 100 µM in each case.
`CC(=O)OC12C(C)=C(C)C(=O)N1c1ccccc1N2C(C)=O` (configuration not stated): the TGI with M14 melanoma, in the assay on HT29 colon, with RXF 393 renal, in the assay on OVCAR-3 ovarian, in the assay with UACC-62 melanoma and with SK-MEL-5 melanoma was > 100 µM each time.
As for `CSC(=NC(=O)c1ccccc1Cl)SCCSC(=NC(=O)c1ccccc1Cl)SC`, the TGI in the assay with M14 melanoma, with HT29 colon, in the assay on SN12C renal, in the assay on RXF 393 renal, in the assay with OVCAR-3 ovarian and in the assay on UACC-62 melanoma was > 100 µM each time. The total growth inhibition concentration (TGI) with SK-MEL-5 melanoma is > 100 µM.
For `Cc1cccc(-c2nnc3s/c(=C\c4ccc(N(C)C)cc4)c(=O)n23)c1`, the total growth inhibition concentration (TGI) with M14 melanoma, in the assay on SN12C renal, in the assay with RXF 393 renal, in the assay on OVCAR-3 ovarian, with UACC-62 melanoma and with SK-MEL-5 melanoma was > 100 µM in each case.
With `COc1ccc(CC(=O)NCCc2ccc(OC)c(OC)c2OC)cc1`, the TGI in the assay on M14 melanoma, in the assay on HT29 colon, in the assay with SN12C renal, in the assay with RXF 393 renal and in the assay with SK-MEL-5 melanoma was > 100 µM each time.
For `O=C(C[n+]1ccccc1)N/N=C(/CCC(=O)N(Cc1ccccc1)Cc1ccccc1)CC(=O)c1ccccc1`, the TGI in the assay with M14 melanoma, with HT29 colon, with SN12C renal, in the assay on RXF 393 renal, with OVCAR-3 ovarian and with UACC-62 melanoma was > 100 µM each time. In addition, in the assay with SK-MEL-5 melanoma, the concentration for total growth inhibition (TGI) is > 100 µM.
As for `O=C1c2ccccc2-c2c3c(cc4ccnc1c24)OCO3`, the total growth inhibition concentration (TGI) in the assay with M14 melanoma was > 100 µM; in the assay on HT29 colon, > 100 µM and 78 µM; with SN12C renal, > 100 µM; with RXF 393 renal it was 18.4 µM and 33 µM; in the assay with OVCAR-3 ovarian, 60.4 µM and 48.9 µM; with UACC-62 melanoma, 69.2 µM and 8.07 µM. The total growth inhibition concentration (TGI) in the assay on SK-MEL-5 melanoma is 8.66 µM.
`NC(=O)CC1OC(=O)Cc2cc3c(c(O)c21)C(=O)c1c(O)cccc1C3=O` (configuration not stated): the TGI in the assay on PC-3 prostate, with NCI/ADR-RES ovarian, in the assay on M14 melanoma, in the assay on MDA-MB-231 breast, in the assay with HT29 colon and in the assay with SN12C renal was > 100 µM throughout. For the same molecule, the TGI in the assay with UACC-62 melanoma and in the assay on SK-MEL-5 melanoma was > 100 µM each time.
For the molecule `COc1ccc(C(=O)C2CCC(C(=O)O)C2)cc1` (configuration not stated), the TGI with M14 melanoma, in the assay with HT29 colon, with SN12C renal, in the assay on RXF 393 renal, in the assay on OVCAR-3 ovarian and in the assay on UACC-62 melanoma was > 100 µM throughout. In addition, the concentration for total growth inhibition (TGI) in the assay on SK-MEL-5 melanoma was > 100 µM.
In the case of `CCOC(=O)C12CCCC1(O)N(NC(=O)OC)C(C)=C2C(=O)OC` (configuration not stated), the TGI with M14 melanoma is > 100 µM; in the assay on HT29 colon, > 100 µM; with SN12C renal, > 100 µM; in the assay on OVCAR-3 ovarian, > 10 µM; in the assay on UACC-62 melanoma, > 100 µM.
